Measured values as given in patent US20200056220A1, “GENERATION OF DATA FOR USE WITH ANTIMICROBIALS” (GeneFluidics, Inc., priority 2018, published 2020).
Read-outs that look alike come from different tables or passages of the source.

Tested on: E. coli
Settings: for average current signal of the four sensors, base susceptibility test: 0 minutes susceptibility culture time, sample diluted to 5×10^5 CFU/mL, −250 mV; for average current signal of the four sensors, base susceptibility test / current of the 60 minute test sample: 0.4 μg antibiotic in 100 μL Mueller-Hinton broth
Method: In an antimicrobial susceptibility testing phase, a local antibiogram can be used to identify antibiotics for treating the pathogen identified in Example 1. […] Susceptibility cultures can be started. […] A second susceptibility culture including imipenem can be generated by diluting a portion of the raw sample to 5×10^5 CFU/mL and distributing the result into a vial with a 0.4 μg of a lyophilized version of the imipenem and 100 μL of culture media (Mueller-Hinton broth).
The imipenem susceptibility test sample can be used to generate an imipenem test sample shortly after the imipenem susceptibility culture was started. The Proteus automated system can begin to prepare a test sample from the imipenem susceptibility test sample by transferring 30 μL of the imipenem susceptibility test sample to a microcentrifuge vial in the machine. Then, the Proteus automated system can add 12 μL of 1M NaOH to the 30 μL sample. This sample can be incubated at room temperature for 2 minutes. The Proteus system can then add 8 μL of 1M HCl. Ten microliters of the result can be placed on each of 4 sensors of the 16 available on the GeneFluidics, Inc. 16X EC chip. This chip can be incubated in the Proteus machine for 11 minutes at 43° C. After completion of this incubation, the chip can be washed and dried by Proteus. Ten microliters of 0.5 U/mL anti-fluorescein horseradish peroxidase (HRP) Fab fragments (Roche; diluted in 1.0% casein in 1 M phosphate-buffered saline, pH 7.4) can be injected into the sensor chambers and incubated for 2 minutes at 25° C. The final reagent addition can be 40 μL of 3,3′,5,5′-tetramethylbenzidine (TMB)-H2O2 solution (K-Blue Low Activity TMB Substrate; Neogen, Lexington Ky.) and incubated for 30 seconds to provide the imipenem test sample.
Then, the Proteus automated system can add 12 μL of 1M NaOH to the 30 μL sample. This sample can be incubated at room temperature for 2 minutes. The Proteus system can then add 8 μL of 1M HCl. Ten microliters of the result can be placed on each of 4 sensors of the 16 available on the GeneFluidics, Inc. 16X EC chip. This chip can be incubated in the Proteus machine for 11 minutes at 43° C. After completion of this incubation, the chip can be washed and dried by Proteus. Ten microliters of 0.5 U/mL anti-fluorescein horseradish peroxidase (HRP) Fab fragments (Roche; diluted in 1.0% casein in 1 M phosphate-buffered saline, pH 7.4) can be injected into the sensor chambers and incubated for 2 minutes at 25° C.
The test samples were tested for concentration using a test that served as the base susceptibility test or the zero susceptibility culture time test. For instance, a Helios potentiostat from GeneFluidics, Inc. was connected to the electrodes of the sensor chips and a potential of −250 mV was applied across the electrodes for one minute. During this time, the current generated by the electrochemical reaction was measured by the potentiostat. The average current measured in the final 10 seconds of the potentiostat reading constituted the final result of the assay.
The process that was used to prepare the test samples for the base susceptibility tests was to be used to generate test samples from each of the susceptibility cultures at 60 minutes, and 90 minutes. Each of the test samples were tested as described above.

[1] = 60 minutes susceptibility culture time

Structure (SMILES)	average current signal of the four sensors, base susceptibility test [nA]	reported result (resistant / susceptible to the concentration of antimicrobial in the culture) (0.4 μg antibiotic in 100 μL culture media, final report when culture was stopped)	increase over the current level from base susceptibility test [1] [%]	current of the 60 minute test sample [1] [nA]	increase over the current level from base susceptibility test (90 minutes susceptibility culture time) [%]
O=C(O)c1cn(C2CC2)c2cc(N3CCNCC3)c(F)cc2c1=O [ciprofloxacin]	30	susceptible	0	30	0
C[C@@H](O)[C@H]1C(=O)N2C(C(=O)O)=C(SCCN=CN)C[C@H]12 [imipenem]	30	–	500	180	–
